Reference: patent publication US20250084040A1, “SUBSTITUTED HETEROCYCLES AS c-MYC TARGETING AGENTS” (Northwestern University, priority 2018, published 2025)

Tested on: NCI 60 cell panel
Experiment: NCI 60 Cell One-Dose Screen
Format: cell-based, human
Conditions: 1.00E−5 Molar
Method: General Description. As of early 2007 all compounds submitted to the NCI 60 Cell screen are tested initially at a single high dose (10^-5 M) in the full NCI 60 cell panel. Only compounds which satisfy pre-determined threshold inhibition criteria in a minimum number of cell lines will progress to the full 5-dose assay. The threshold inhibition criteria for progression to the 5-dose screen was selected to efficiently capture compounds with anti-proliferative activity based on careful analysis of historical DTP screening data. The threshold criteria may be updated as additional data becomes available.
Interpretation of One-Dose Data. The One-dose data will be reported as a mean graph of the percent growth of treated cells and will be similar in appearance to mean graphs from the 5-dose assay. The number reported for the One-dose assay is growth relative to the no-drug control, and relative to the time zero number of cells. This allows detection of both growth inhibition (values between 0 and 100) and lethality (values less than 0). This is the same as for the 5-dose assay, described below. For example, a value of 100 means no growth inhibition. A value of 40 would mean 60% growth inhibition. A value of 0 means no net growth over the course of the experiment. A value of −40 would mean 40% lethality. A value of −100 means all cells are dead. Information from the One-dose mean graph is available for COMPARE analysis.
The human tumor cell lines of the cancer screening panel are grown in RPMI 1640 medium containing 5% fetal bovine serum and 2 mM L-glutamine. For a typical screening experiment, cells are inoculated into 96 well microtiter plates in 100 μL at plating densities ranging from 5,000 to 40,000 cells/well depending on the doubling time of individual cell lines. After cell inoculation, the microtiter plates are incubated at […], 5% CO2, 95% air and 100% relative humidity for 24 h prior to addition of experimental drugs.
After 24 h, two plates of each cell line are fixed in situ with TCA, to represent a measurement of the cell population for each cell line at the time of drug addition (Tz). Experimental drugs are solubilized in dimethyl sulfoxide at 400-fold the desired final maximum test concentration and stored frozen prior to use. At the time of drug addition, an aliquot of frozen concentrate is thawed and diluted to twice the desired final maximum test concentration with complete medium containing 50 µg/ml gentamicin. Additional four, 10-fold or ½ log serial dilutions are made to provide a total of five drug concentrations plus control. Aliquots of 100 μl of these different drug dilutions are added to the appropriate microtiter wells already containing 100 μl of medium, resulting in the required final drug concentrations.
Following drug addition, the plates are incubated for an additional 48 h at 37° C., 5% CO2, 95% air, and 100% relative humidity. For adherent cells, the assay is terminated by the addition of cold TCA. Cells are fixed in situ by the gentle addition of 50 μl of cold 50% (w/v) TCA (final concentration, 10% TCA) and incubated for 60 minutes at 4° C. The supernatant is discarded, and the plates are washed five times with tap water and air dried. Sulforhodamine B (SRB) solution (100 μl) at 0.4% (w/v) in 1% acetic acid is added to each well, and plates are incubated for 10 minutes at room temperature. After staining, unbound dye is removed by washing five times with 1% acetic acid and the plates are air dried. Bound stain is subsequently solubilized with 10 mM trizma base, and the absorbance is read on an automated plate reader at a wavelength of 515 nm. For suspension cells, the methodology is the same except that the assay is terminated by fixing settled cells at the bottom of the wells by gently adding 50 μl of 80% TCA (final concentration, 16% TCA). […]

Cn1nc(C(F)(F)F)cc1-c1ccc(OCc2ccc(Cl)cc2)c(-c2cc(C(F)(F)F)cc(C(F)(F)F)c2)c1O [NSC: D-795899/1]
Growth Percent (786-0 (Renal Cancer)): 2.41% | Growth Percent (A498 (Renal Cancer)): −26.88% | Growth Percent (A549/ATCC (Non-Small Cell Lung Cancer)): 10.52% | Growth Percent (ACHN (Renal Cancer)): 7.22% | Growth Percent (BT-549 (Breast Cancer)): 2.72% | Growth Percent (CCRF-CEM (Leukemia)): 6.82% | Growth Percent (COLO 205 (Colon Cancer)): −90.71% | Growth Percent (DU-145 (Prostate Cancer)): 20.58% | Growth Percent, Delta (Delta of the mean graph): 89.50% | Growth Percent (EKVX (Non-Small Cell Lung Cancer)): 7.70% | Growth Percent (HCC-2998 (Colon Cancer)): 5.78% | Growth Percent (HCT-15 (Colon Cancer)): 7.50% | Growth Percent (HCT-116 (Colon Cancer)): 3.65% | Growth Percent (HL-60(TB) (Leukemia)): −39.89% | Growth Percent (HOP-62 (Non-Small Cell Lung Cancer)): −9.87% | Growth Percent (HOP-92 (Non-Small Cell Lung Cancer)): −20.08% | Growth Percent (HS 578T (Breast Cancer)): 4.39% | Growth Percent (HT29 (Colon Cancer)): 3.77% | Growth Percent (IGROV1 (Ovarian Cancer)): 31.40% | Growth Percent (K-562 (Leukemia)): 1.63% | Growth Percent (KM12 (Colon Cancer)): 5.04% | Growth Percent (LOX IMVI (Melanoma)): 6.23% | Growth Percent (M14 (Melanoma)): 6.30% | Growth Percent (MALME-3M (Melanoma)): −15.91% | Growth Percent (MCF7 (Breast Cancer)): 3.01% | Growth Percent (MDA-MB-231/ATCC (Breast Cancer)): −31.51% | Growth Percent (MDA-MB-435 (Melanoma)): 11.38% | Growth Percent (MDA-MB-468 (Breast Cancer)): -5.00% | Growth Percent (MOLT-4 (Leukemia)): −11.7% | Growth Percent, Mean (Mean over the cell panel): -1.21% | Growth Percent (NCI-H23 (Non-Small Cell Lung Cancer)): 0.56% | Growth Percent (NCI-H226 (Non-Small Cell Lung Cancer)): 13.90% | Growth Percent (NCI-H322M (Non-Small Cell Lung Cancer)): 5.67% | Growth Percent (NCI-H460 (Non-Small Cell Lung Cancer)): −10.44% | Growth Percent (NCI-H522 (Non-Small Cell Lung Cancer)): −9.19% | Growth Percent (NCI/ADR-RES (Ovarian Cancer)): 1.98% | Growth Percent (OVCAR-3 (Ovarian Cancer)): 7.02% | Growth Percent (OVCAR-4 (Ovarian Cancer)): 20.71% | Growth Percent (OVCAR-5 (Ovarian Cancer)): 29.10% | Growth Percent (OVCAR-8 (Ovarian Cancer)): 8.36% | Growth Percent (PC-3 (Prostate Cancer)): 10.73% | Growth Percent (RPMI-8226 (Leukemia)): −14.54% | Growth Percent (RXF 393 (Renal Cancer)): −14.51% | Growth Percent, Range (Range over the cell panel): 122.11% | Growth Percent (SF-268 (CNS Cancer)): 16.59% | Growth Percent (SF-295 (CNS Cancer)): −22.60% | Growth Percent (SF-539 (CNS Cancer)): 2.13% | Growth Percent (SK-MEL-2 (Melanoma)): −33.97% | Growth Percent (SK-MEL-28 (Melanoma)): 28.00% | Growth Percent (SK-MIEL-5 (Melanoma)): −36.59% | Growth Percent (SK-OV-3 (Ovarian Cancer)): −13.54% | Growth Percent (SN12C (Renal Cancer)): 7.93% | Growth Percent (SNB-19 (CNS Cancer)): 22.58% | Growth Percent (SNB-75 (CNS Cancer)): 4.92% | Growth Percent (SR (Leukemia)): −4.24% | Growth Percent (SW-620 (Colon Cancer)): 13.14% | Growth Percent (T-47D (Breast Cancer)): −11.64% | Growth Percent (TK-10 (Renal Cancer)): 9.29% | Growth Percent (U251 (CNS Cancer)): 6.17% | Growth Percent (UACC-62 (Melanoma)): 3.02% | Growth Percent (UACC-257 (Melanoma)): −7.16% | Growth Percent (UO-31 (Renal Cancer)): −1.27%
